Data: ChEMBL document CHEMBL1833965, “A new N-methyl thymine derivative comprising a dihydroxyisobutenyl unit as ligand for thymidine kinase of herpes simplex virus type 1 (HSV-1 TK)” (Bioorg Med Chem Lett, 2011)
The source made the active and inactive calls. The rule behind the calls is not given here.

System: WI-38
Assay: Antiproliferative activity against human WI38 cells after 72 hrs by MTT assay
Format: cell-based
Conditions: WI-38, 72 h

Row | Compound | IC50 [µM]
1 | COc1nc(=O)n(C)c(CC(O)(COCc2ccccc2)COCc2ccccc2)c1C | 49.8
2 | COc1nc(CC(O)(CO)CO)c(C)c(OC)n1 | > 100
3 | CC(=O)OCC(F)(COC(C)=O)Cc1c(C)c(=O)[nH]c(=O)n1C | > 100
4 | COc1nc(=O)n(C)c(CC(O)(COC(C)=O)COC(C)=O)c1C | > 100
5 | COc1nc(CC(O)(COC(C)=O)COC(C)=O)c(C)c(OC)n1 | > 100
6 | COc1nc(CC(O)(COCc2ccccc2)COCc2ccccc2)c(C)c(OC)n1 | 3.84
7 | COc1nc(CC(F)(COC(C)=O)COC(C)=O)c(C)c(OC)n1 | > 100
8 | Cc1c(CC(O)(CO)CO)n(C)c(=O)[nH]c1=O | > 100
9 | CC(=O)OCC(=Cc1c(C)c(=O)[nH]c(=O)n1C)COC(C)=O | > 100
10 | CC(=O)OCC(O)(COC(C)=O)Cc1c(C)c(=O)[nH]c(=O)n1C | > 100
11 | COc1nc(=O)n(C)c(CC(O)(CO)CO)c1C | > 100
12 | COc1nc(=O)n(C)c(CC(F)(COC(C)=O)COC(C)=O)c1C | > 100
13 | Cc1c(C=C(CO)CO)n(C)c(=O)[nH]c1=O | > 100

System: MCF7
Assay: Antiproliferative activity against human MCF7 cells after 72 hrs by MTT assay
Format: functional, cell-based
Conditions: MCF7, 72 h

Row | Compound | IC50 [µM]
14 | COc1nc(=O)n(C)c(CC(O)(COCc2ccccc2)COCc2ccccc2)c1C | 23.7
15 | COc1nc(CC(O)(CO)CO)c(C)c(OC)n1 | > 100
16 | CC(=O)OCC(F)(COC(C)=O)Cc1c(C)c(=O)[nH]c(=O)n1C | > 100
17 | COc1nc(=O)n(C)c(CC(O)(COC(C)=O)COC(C)=O)c1C | > 100
18 | COc1nc(CC(O)(COC(C)=O)COC(C)=O)c(C)c(OC)n1 | > 100
19 | COc1nc(CC(O)(COCc2ccccc2)COCc2ccccc2)c(C)c(OC)n1 | 4.22
20 | COc1nc(CC(F)(COC(C)=O)COC(C)=O)c(C)c(OC)n1 | > 100
21 | Cc1c(CC(O)(CO)CO)n(C)c(=O)[nH]c1=O | > 100
22 | CC(=O)OCC(=Cc1c(C)c(=O)[nH]c(=O)n1C)COC(C)=O | > 100
23 | CC(=O)OCC(O)(COC(C)=O)Cc1c(C)c(=O)[nH]c(=O)n1C | > 100
24 | COc1nc(=O)n(C)c(CC(O)(CO)CO)c1C | > 100
25 | COc1nc(=O)n(C)c(CC(F)(COC(C)=O)COC(C)=O)c1C | > 100
26 | Cc1c(C=C(CO)CO)n(C)c(=O)[nH]c1=O | > 100

System: HeLa
Assay: Antiproliferative activity against human HeLa cells after 72 hrs by MTT assay
Format: functional, cell-based
Conditions: not given

Row | Compound | IC50 [µM]
27 | COc1nc(=O)n(C)c(CC(O)(COCc2ccccc2)COCc2ccccc2)c1C | 29.5
28 | COc1nc(CC(O)(CO)CO)c(C)c(OC)n1 | > 100
29 | CC(=O)OCC(F)(COC(C)=O)Cc1c(C)c(=O)[nH]c(=O)n1C | > 100
30 | COc1nc(=O)n(C)c(CC(O)(COC(C)=O)COC(C)=O)c1C | > 100
31 | COc1nc(CC(O)(COC(C)=O)COC(C)=O)c(C)c(OC)n1 | > 100
32 | COc1nc(CC(O)(COCc2ccccc2)COCc2ccccc2)c(C)c(OC)n1 | 3.67
33 | COc1nc(CC(F)(COC(C)=O)COC(C)=O)c(C)c(OC)n1 | > 100
34 | Cc1c(CC(O)(CO)CO)n(C)c(=O)[nH]c1=O | > 100
35 | CC(=O)OCC(=Cc1c(C)c(=O)[nH]c(=O)n1C)COC(C)=O | > 100
36 | CC(=O)OCC(O)(COC(C)=O)Cc1c(C)c(=O)[nH]c(=O)n1C | > 100
37 | COc1nc(=O)n(C)c(CC(O)(CO)CO)c1C | > 100
38 | COc1nc(=O)n(C)c(CC(F)(COC(C)=O)COC(C)=O)c1C | > 100
39 | Cc1c(C=C(CO)CO)n(C)c(=O)[nH]c1=O | > 100

System: MIA PaCa-2
Assay: Antiproliferative activity against human MIAPaCa2 cells after 72 hrs by MTT assay
Format: functional, cell-based
Conditions: MIA PaCa-2, 72 h

Row | Compound | IC50 [µM]
40 | COc1nc(=O)n(C)c(CC(O)(COCc2ccccc2)COCc2ccccc2)c1C | 33.5
41 | COc1nc(CC(O)(CO)CO)c(C)c(OC)n1 | > 100
42 | CC(=O)OCC(F)(COC(C)=O)Cc1c(C)c(=O)[nH]c(=O)n1C | > 100
43 | COc1nc(=O)n(C)c(CC(O)(COC(C)=O)COC(C)=O)c1C | > 100
44 | COc1nc(CC(O)(COC(C)=O)COC(C)=O)c(C)c(OC)n1 | > 100
45 | COc1nc(CC(O)(COCc2ccccc2)COCc2ccccc2)c(C)c(OC)n1 | 6.08
46 | COc1nc(CC(F)(COC(C)=O)COC(C)=O)c(C)c(OC)n1 | > 100
47 | Cc1c(CC(O)(CO)CO)n(C)c(=O)[nH]c1=O | > 100
48 | CC(=O)OCC(=Cc1c(C)c(=O)[nH]c(=O)n1C)COC(C)=O | > 100
49 | CC(=O)OCC(O)(COC(C)=O)Cc1c(C)c(=O)[nH]c(=O)n1C | > 100
50 | COc1nc(=O)n(C)c(CC(O)(CO)CO)c1C | > 100
51 | COc1nc(=O)n(C)c(CC(F)(COC(C)=O)COC(C)=O)c1C | > 100
52 | Cc1c(C=C(CO)CO)n(C)c(=O)[nH]c1=O | > 100

Target: T1, Thymidine kinase, cytosolic (Homo sapiens) (UniProt P04183)
T1 sequence (whole entry): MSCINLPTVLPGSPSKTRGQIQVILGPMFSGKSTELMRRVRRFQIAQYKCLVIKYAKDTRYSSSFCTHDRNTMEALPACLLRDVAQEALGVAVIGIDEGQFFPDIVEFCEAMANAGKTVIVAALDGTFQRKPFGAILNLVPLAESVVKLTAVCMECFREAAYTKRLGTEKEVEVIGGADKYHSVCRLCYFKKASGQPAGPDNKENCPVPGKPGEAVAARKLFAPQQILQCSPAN
Assay: Activity of human 6xHis-tagged TK assessed as formation of compound-monophosphate by HPLC analysis
Conditions: not given

Row | Compound | Activity
53 | Cc1c(C=C(CO)CO)n(C)c(=O)[nH]c1=O | inactive

System: SW-620
Assay: Antiproliferative activity against human SW620 cells after 72 hrs by MTT assay
Format: functional, cell-based
Conditions: SW-620, 72 h

Row | Compound | IC50 [µM]
54 | COc1nc(=O)n(C)c(CC(O)(COCc2ccccc2)COCc2ccccc2)c1C | 57.2
55 | COc1nc(CC(O)(CO)CO)c(C)c(OC)n1 | > 100
56 | CC(=O)OCC(F)(COC(C)=O)Cc1c(C)c(=O)[nH]c(=O)n1C | > 100
57 | COc1nc(=O)n(C)c(CC(O)(COC(C)=O)COC(C)=O)c1C | > 100
58 | COc1nc(CC(O)(COC(C)=O)COC(C)=O)c(C)c(OC)n1 | > 100
59 | COc1nc(CC(O)(COCc2ccccc2)COCc2ccccc2)c(C)c(OC)n1 | 3.48
60 | COc1nc(CC(F)(COC(C)=O)COC(C)=O)c(C)c(OC)n1 | > 100
61 | Cc1c(CC(O)(CO)CO)n(C)c(=O)[nH]c1=O | > 100
62 | CC(=O)OCC(=Cc1c(C)c(=O)[nH]c(=O)n1C)COC(C)=O | > 100
63 | CC(=O)OCC(O)(COC(C)=O)Cc1c(C)c(=O)[nH]c(=O)n1C | > 100
64 | COc1nc(=O)n(C)c(CC(O)(CO)CO)c1C | > 100
65 | COc1nc(=O)n(C)c(CC(F)(COC(C)=O)COC(C)=O)c1C | > 100
66 | Cc1c(C=C(CO)CO)n(C)c(=O)[nH]c1=O | > 100

System: HepG2
Assay: Antiproliferative activity against human HepG2 cells after 72 hrs by MTT assay
Format: functional, cell-based
Conditions: HepG2, 72 h

Row | Compound | IC50 [µM]
67 | COc1nc(=O)n(C)c(CC(O)(COCc2ccccc2)COCc2ccccc2)c1C | 33.9
68 | COc1nc(CC(O)(CO)CO)c(C)c(OC)n1 | > 100
69 | CC(=O)OCC(F)(COC(C)=O)Cc1c(C)c(=O)[nH]c(=O)n1C | > 100
70 | COc1nc(=O)n(C)c(CC(O)(COC(C)=O)COC(C)=O)c1C | > 100
71 | COc1nc(CC(O)(COC(C)=O)COC(C)=O)c(C)c(OC)n1 | > 100
72 | COc1nc(CC(O)(COCc2ccccc2)COCc2ccccc2)c(C)c(OC)n1 | 2.42
73 | COc1nc(CC(F)(COC(C)=O)COC(C)=O)c(C)c(OC)n1 | > 100
74 | Cc1c(CC(O)(CO)CO)n(C)c(=O)[nH]c1=O | > 100
75 | CC(=O)OCC(=Cc1c(C)c(=O)[nH]c(=O)n1C)COC(C)=O | > 100
76 | CC(=O)OCC(O)(COC(C)=O)Cc1c(C)c(=O)[nH]c(=O)n1C | > 100
77 | COc1nc(=O)n(C)c(CC(O)(CO)CO)c1C | > 100
78 | COc1nc(=O)n(C)c(CC(F)(COC(C)=O)COC(C)=O)c1C | > 100
79 | Cc1c(C=C(CO)CO)n(C)c(=O)[nH]c1=O | > 100

Target: T2, Thymidine kinase (Human alphaherpesvirus 1) (UniProt Q9QNF7)
T2 sequence (whole entry): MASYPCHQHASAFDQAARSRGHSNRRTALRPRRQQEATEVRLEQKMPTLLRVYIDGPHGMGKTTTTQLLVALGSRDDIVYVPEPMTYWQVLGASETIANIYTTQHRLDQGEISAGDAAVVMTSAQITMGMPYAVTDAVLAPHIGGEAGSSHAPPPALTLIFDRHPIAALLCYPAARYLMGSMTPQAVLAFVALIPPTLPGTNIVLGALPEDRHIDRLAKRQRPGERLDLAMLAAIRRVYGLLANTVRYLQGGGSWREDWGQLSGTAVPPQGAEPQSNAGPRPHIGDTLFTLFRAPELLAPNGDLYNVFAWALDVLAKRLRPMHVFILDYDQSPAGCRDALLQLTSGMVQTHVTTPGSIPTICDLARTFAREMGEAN
Assay: Activity of HSV-1 GST-TK assessed as formation of compound-monophosphate by HPLC analysis
Conditions: not given

Row | Compound | Activity
80 | Cc1c(C=C(CO)CO)n(C)c(=O)[nH]c1=O | Active

Target: T1, Thymidine kinase, cytosolic (Homo sapiens)
Assay: Activity of human 6xHis-tagged TK assessed as formation of ADP by HPLC analysis
Conditions: not given

Row | Compound | Activity
81 | Cc1c(C=C(CO)CO)n(C)c(=O)[nH]c1=O | inactive

Target: T2, Thymidine kinase (Human alphaherpesvirus 1)
Assay: Activity of HSV-1 GST-TK assessed as formation of ADP by HPLC analysis
Conditions: not given

Row | Compound | Activity
82 | Cc1c(C=C(CO)CO)n(C)c(=O)[nH]c1=O | Active

Target: T2, Thymidine kinase (Human alphaherpesvirus 1)
Assay: Activity of HSV-1 GST-TK assessed as increase in ADP to ATP ratio at 1 mM after 30 mins
Conditions: not given

Row | Compound | Activity
83 | Cc1c(C=C(CO)CO)n(C)c(=O)[nH]c1=O | Active

Target: T1, Thymidine kinase, cytosolic (Homo sapiens)
Assay: Activity of human 6xHis-tagged TK assessed as effect on ADP to ATP ratio at 1 mM after 30 mins
Conditions: not given

Row | Compound | Activity
84 | Cc1c(C=C(CO)CO)n(C)c(=O)[nH]c1=O | inactive
